Test results reported in US20090253618A1, “NEURONAL DIFFERENTIATION-INDUCING PEPTIDE AND USE THEREOF” (TOAGOSEI CO., LTD, priority 2005, published 2009).
Ends that are not written are not given here.

Legend:
[1] = test system: neural stem cells procured from mice; test: Neuronal differentiation-inducing activity in mouse neural stem cell culture (immune antibody procedure, MAPs and NeuN markers); format: cell-based; conditions: same tests as for samples 1 and 6 (10 ng/mL and 100 ng/mL, 24 hours), concentration of the result not stated
[2] = test system: adipose stem cells procured from humans; test: Neuronal differentiation-inducing activity in human adipose stem cell culture (immune antibody procedure, MAPs and NeuN markers); format: cell-based; conditions: same tests as for samples 1 and 6 (10 ng/mL and 100 ng/mL, 24 hours), concentration of the result not stated

Row | Substance | degree of neuronal differentiation [1] | degree of neuronal differentiation [2]
1 | YARAAARQARA-TLLSLCRVAV (YARAAARQARATLLSLCRVAV) [sample 16, PTD4 plus 10 residues from the N terminal of the BC-box of mASB-1] | significant neuronal differentiation | significant neuronal differentiation
2 | YARAAARQARA-SLQYLCRFVI (YARAAARQARASLQYLCRFVI) [sample 15, PTD4 plus 10 residues from the N terminal of the BC-box of hSOCS-6] | significant neuronal differentiation | significant neuronal differentiation
3 | YARAAARQARA-SLQHLCRLVINRLVA (YARAAARQARASLQHLCRLVINRLVA) [sample 24] | significant neuronal differentiation | significant neuronal differentiation
4 | YARAAARQARA-SLTHLCRLEIRSSIK (YARAAARQARASLTHLCRLEIRSSIK) [sample 8] | significant neuronal differentiation | significant neuronal differentiation
5 | YARAAARQARA-SLQHICRMSI (YARAAARQARASLQHICRMSI) [sample 17, PTD4 plus 10 residues from the N terminal of the BC-box of mWSB-1] | significant neuronal differentiation | significant neuronal differentiation
6 | YARAAARQARA-SLKHLCRKALRSFLT (YARAAARQARASLKHLCRKALRSFLT) [sample 5] | significant neuronal differentiation | significant neuronal differentiation
7 | YARAAARQARA-SLQHICRTVICNCTT (YARAAARQARASLQHICRTVICNCTT) [sample 14] | significant neuronal differentiation | significant neuronal differentiation
8 | YARAAARQARA-TLLSLCRVAVRRALG (YARAAARQARATLLSLCRVAVRRALG) [sample 3] | significant neuronal differentiation | significant neuronal differentiation
9 | YARAAARQARA-TLQHFCRLAINKCT (YARAAARQARATLQHFCRLAINKCT) [sample 12] | significant neuronal differentiation | significant neuronal differentiation
10 | YARAAARQARA-SLQYLCKFVI (YARAAARQARASLQYLCKFVI) [sample 22] | significant neuronal differentiation | significant neuronal differentiation
11 | YARAAARQARA-SLQFLALKALISERR (YARAAARQARASLQFLALKALISERR-NH2) [sample 21] | significant neuronal differentiation | significant neuronal differentiation
12 | YARAAARQARA-TLQHLCRKTVNGHLD (YARAAARQARATLQHLCRKTVNGHLD) [sample 13] | significant neuronal differentiation | significant neuronal differentiation
13 | YARAAARQARA-SLQYLCRFVIRQYTK (YARAAARQARASLQYLCRFVIRQYTK) [sample 18] | significant neuronal differentiation | significant neuronal differentiation
14 | YARAAARQARA-ALFELCGRAV (YARAAARQARAALFELCGRAV) [sample 23, PTD4 plus 10 residues from the N terminal of the BC-box of MUF1] | significant neuronal differentiation | significant neuronal differentiation
15 | YARAAARQARA-SLQDLCCRAVVSCTP (YARAAARQARASLQDLCCRAVVSCTP) [sample 10] | significant neuronal differentiation | significant neuronal differentiation
16 | YARAAARQARA-SLQHLCRFRIRQLVR (YARAAARQARASLQHLCRFRIRQLVR) [sample 4] | significant neuronal differentiation | significant neuronal differentiation
17 | YARAAARQARA-PLQELCRQRIVAAVG (YARAAARQARAPLQELCRQRIVAAVG) [sample 11] | significant neuronal differentiation | significant neuronal differentiation
18 | YARAAARQARA-PLAHLCRLRVRKAIG (YARAAARQARAPLAHLCRLRVRKAIG) [sample 7] | significant neuronal differentiation | significant neuronal differentiation
19 | YARAAARQARA-PLMDLCRRSVRLALG (YARAAARQARAPLMDLCRRSVRLALG) [sample 20] | significant neuronal differentiation | significant neuronal differentiation
20 | YARAAARQARA-SLQYICRAVICRCTT (YARAAARQARASLQYICRAVICRCTT) [sample 9] | significant neuronal differentiation | significant neuronal differentiation
21 | YARAAARQARA-SLQHICRMSIRRVMS (YARAAARQARASLQHICRMSIRRVMS) [sample 2] | significant neuronal differentiation | significant neuronal differentiation
22 | YARAAARQARA-SLQYLALKALVTPKK (YARAAARQARASLQYLALKALVTPKK-NH2) [sample 19] | significant neuronal differentiation | significant neuronal differentiation
